Source: the supplement of paper PMC10307832

Columns and labels:
Assay in all cases: relative viability (nuclei count vs DMSO), 5 days (fraction); higher = more cells survive
Tipifarnib + Vorinostat = compound: Cn1cncc1[C@@](N)(c1ccc(Cl)cc1)c1ccc2c(c1)c(-c1cccc(Cl)c1)cc(=O)n2C [Tipifarnib] + O=C(CCCCCCC(=O)Nc1ccccc1)NO [Vorinostat] (partner 1 µM)
Outline: (§1)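 Each reported value is a median over duplicate plates. It expresses relative viability: treated-well nuclei count divided by vehicle-well nuclei count. Lung cancer cell lines in 1536-well plates were dosed by pin tool a day after seeding, alone with one drug or with a fixed anchor-drug dose plus five library-drug doses (not always all listed) in √10 steps, and nuclei were counted after 5 days.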

Tipifarnib + Linsitinib = compound: Cn1cncc1[C@@](N)(c1ccc(Cl)cc1)c1ccc2c(c1)c(-c1cccc(Cl)c1)cc(=O)n2C [Tipifarnib] + C[C@]1(O)C[C@@H](c2nc(-c3ccc4ccc(-c5ccccc5)nc4c3)c3c(N)nccn32)C1 [Linsitinib] (partner 1 µM)
Outline: as §1

Tipifarnib + Alpelisib = compound: Cn1cncc1[C@@](N)(c1ccc(Cl)cc1)c1ccc2c(c1)c(-c1cccc(Cl)c1)cc(=O)n2C [Tipifarnib] + Cc1nc(NC(=O)N2CCC[C@H]2C(N)=O)sc1-c1ccnc(C(C)(C)C(F)(F)F)c1 [Alpelisib] (partner 2 µM)
Outline: as §1

Tipifarnib + Navitoclax = compound: Cn1cncc1[C@@](N)(c1ccc(Cl)cc1)c1ccc2c(c1)c(-c1cccc(Cl)c1)cc(=O)n2C [Tipifarnib] + CC1(C)CCC(c2ccc(Cl)cc2)=C(CN2CCN(c3ccc(C(=O)NS(=O)(=O)c4ccc(N[C@H](CCN5CCOCC5)CSc5ccccc5)c(S(=O)(=O)C(F)(F)F)c4)cc3)CC2)C1 [Navitoclax] (partner 0.5 µM)
Outline: as §1

Row | Cell Line | relative viability (Tipifarnib + Vorinostat; first compound 0.01 µM) | relative viability (Tipifarnib + Vorinostat; first compound 0.03162 µM) | relative viability (Tipifarnib + Vorinostat; first compound 0.1 µM) | relative viability (Tipifarnib + Vorinostat; first compound 0.3162 µM) | relative viability (Tipifarnib + Vorinostat; first compound 1 µM) | relative viability (Tipifarnib + Linsitinib; first compound 0.01 µM) | relative viability (Tipifarnib + Linsitinib; first compound 0.03162 µM) | relative viability (Tipifarnib + Linsitinib; first compound 0.1 µM) | relative viability (Tipifarnib + Linsitinib; first compound 0.3162 µM) | relative viability (Tipifarnib + Linsitinib; first compound 1 µM) | relative viability (Tipifarnib + Alpelisib; first compound 0.01 µM) | relative viability (Tipifarnib + Alpelisib; first compound 0.03162 µM) | relative viability (Tipifarnib + Alpelisib; first compound 0.1 µM) | relative viability (Tipifarnib + Alpelisib; first compound 0.3162 µM) | relative viability (Tipifarnib + Alpelisib; first compound 1 µM) | relative viability (Tipifarnib + Navitoclax; first compound 0.01 µM) | relative viability (Tipifarnib + Navitoclax; first compound 0.03162 µM) | relative viability (Tipifarnib + Navitoclax; first compound 0.1 µM) | relative viability (Tipifarnib + Navitoclax; first compound 0.3162 µM) | relative viability (Tipifarnib + Navitoclax; first compound 1 µM)
1 | NCI-H2085 | 0.767 | 0.575 | 0.62 | 0.53 | 0.445 | 0.923 | 0.651 | 0.514 | 0.404 | 0.479 | 0.924 | 0.709 | 0.605 | 0.599 | 0.533 | 0.862 | 0.788 | 0.546 | 0.611 | 0.514
2 | IA-LM |  | 0.539 | 0.277 | 0.238 | 0.249 | 0.329 | 0.285 | 0.332 | 0.288 | 0.189 | 0.362 | 0.289 | 0.309 | 0.213 | 0.214 | 0.388 | 0.378 | 0.296 | 0.251 | 0.164
3 | H3255 | 0.863 | 0.702 | 0.671 | 0.576 | 0.488 | 1.06 | 0.895 | 0.916 | 0.591 | 0.684 | 0.759 | 0.734 | 0.627 | 0.482 | 0.497 | 0.546 | 0.568 | 0.496 | 0.35 | 0.299
4 | LOU-NH91 | 0.897 | 0.53 | 0.749 | 0.747 | 0.458 | 0.937 | 0.819 | 0.838 | 0.736 | 0.691 | 0.706 | 0.702 | 0.644 | 0.545 | 0.583 | 0.682 | 0.633 | 0.663 | 0.483 | 0.398
5 | NCI-H3122 | 1.12 | 0.962 | 0.709 | 0.538 | 0.219 | 1.02 | 0.835 | 0.784 | 0.663 | 0.726 | 0.665 | 0.598 | 0.527 | 0.402 | 0.401 | 1.02 | 0.95 | 0.857 | 0.675 | 0.782
6 | PC-3 [JPC-3] | 0.823 | 0.674 | 0.529 | 0.426 | 0.386 | 0.956 | 0.899 | 0.872 | 0.769 | 0.736 | 1.04 | 1 | 0.816 | 0.78 | 0.662 | 0.814 | 0.648 | 0.749 | 0.532 | 0.416
7 | NCI-H1651 | 0.545 | 0.54 | 0.537 | 0.507 | 0.335 | 1.18 | 1.06 | 0.964 | 0.892 | 0.961 | 1.32 | 1.01 | 1.03 | 0.837 | 0.811 | 1.15 | 1.21 | 0.994 | 0.912 | 0.895
8 | NCI-H2087 | 0.668 | 0.363 | 0.292 | 0.248 | 0.222 | 0.797 | 0.583 | 0.514 | 0.5 | 0.447 | 1.17 | 0.635 | 0.3 | 0.371 | 0.406 | 0.918 | 0.559 | 0.407 | 0.411 | 0.467
